Laboratory results from patent US12643859B2, “Pyridyl oxycarboxylic acid oxime derivative and preparation method therefor, weeding composition and application thereof” (Qingdao Kingagroot Chemical Compound Co., Ltd., priority 2018, dated 2026).

test system: Indica rice; test: Post-emergence test experiment, crop selectivity; type: in vivo; conditions: post-emergence spray, 600 g a.i./ha plus water 450 kg/ha, 3 weeks in greenhouse
Protocol: (§1) The above described growth inhibition rate is fresh weight inhibition rate.
(§2) Post-emergence test experiment: Monocotyledonous and dicotyledonous weed seeds and main crop seeds (i. e. wheat, corn, rice, soybean, cotton, oilseed, millet and sorghum.) were put into a plastic pot loaded with soil. Then covered with 0.5-2 cm soil, the seeds were allowed to grow in good greenhouse environment. The test plants were treated at 2-3 leaf stage 2 weeks after sowing. The test compounds of the invention were dissolved with acetone respectively, then added with tween-80, and using 1.5 liters per hectare of an emulsible concentrate of methyl oleate as a synergist, and diluted by certain amount of water to certain concentration. The solution was sprayed to the plants with a sprayer. Then the plants were cultured for 3 weeks in the greenhouse, and the experiment result of weed controlling effect was listed in tables 3-4.

| Compound | Activity level (fresh weight growth inhibition rate), Indica rice |
| --- | --- |
| CC(Oc1nc(F)c(Cl)c(N)c1Cl)C(=O)ON=C1CCCC1 (stereo not shown) [Compound 117] | 0 (Level 0: the growth inhibition rate is less than 5%) |
| CCC(=NOC(=O)C(C)Oc1nc(F)c(Cl)c(N)c1Cl)C(=O)NCc1ccc(C)cc1 (stereo not shown) [Compound 100] | 0 (Level 0: the growth inhibition rate is less than 5%) |
| CC(Oc1nc(F)c(Cl)c(N)c1Cl)C(=O)ON=C(c1ccc(N(C)C)cc1)[N+](=O)[O-] (stereo not shown) [Compound 90] | 0 (Level 0: the growth inhibition rate is less than 5%) |
| CCCC(Cl)=NOC(=O)C(C)Oc1nc(F)c(Cl)c(N)c1Cl (stereo not shown) [Compound 75] | 0 (Level 0: the growth inhibition rate is less than 5%) |

test system: Japonica rice; test: Post-emergence test experiment, crop selectivity; type: in vivo; conditions: post-emergence spray, 600 g a.i./ha plus water 450 kg/ha, 3 weeks in greenhouse
Protocol: as §1, §2

| Compound | Activity level (fresh weight growth inhibition rate), Japonica rice |
| --- | --- |
| CC(Oc1nc(F)c(Cl)c(N)c1Cl)C(=O)ON=C1CCCC1 (stereo not shown) [Compound 117] | 0 (Level 0: the growth inhibition rate is less than 5%) |
| CCC(=NOC(=O)C(C)Oc1nc(F)c(Cl)c(N)c1Cl)C(=O)NCc1ccc(C)cc1 (stereo not shown) [Compound 100] | 0 (Level 0: the growth inhibition rate is less than 5%) |
| CC(Oc1nc(F)c(Cl)c(N)c1Cl)C(=O)ON=C(c1ccc(N(C)C)cc1)[N+](=O)[O-] (stereo not shown) [Compound 90] | 0 (Level 0: the growth inhibition rate is less than 5%) |
| CCCC(Cl)=NOC(=O)C(C)Oc1nc(F)c(Cl)c(N)c1Cl (stereo not shown) [Compound 75] | 0 (Level 0: the growth inhibition rate is less than 5%) |

test system: Cyperus iria; test: Post-emergence test experiment, weed control; type: in vivo; conditions: post-emergence spray, 600 g a.i./ha plus water 450 kg/ha, 3 weeks in greenhouse
Protocol: as §1, §2

| Compound | Activity level (fresh weight growth inhibition rate), Cyperus iria |
| --- | --- |
| CC(Oc1nc(F)c(Cl)c(N)c1Cl)C(=O)ON=C1CCCC1 (stereo not shown) [Compound 117] | 5 (Level 5: the growth inhibition rate is greater than 85%) |
| CCC(=NOC(=O)C(C)Oc1nc(F)c(Cl)c(N)c1Cl)C(=O)NCc1ccc(C)cc1 (stereo not shown) [Compound 100] | 5 (Level 5: the growth inhibition rate is greater than 85%) |
| CC(Oc1nc(F)c(Cl)c(N)c1Cl)C(=O)ON=C(c1ccc(N(C)C)cc1)[N+](=O)[O-] (stereo not shown) [Compound 90] | 5 (Level 5: the growth inhibition rate is greater than 85%) |
| CCCC(Cl)=NOC(=O)C(C)Oc1nc(F)c(Cl)c(N)c1Cl (stereo not shown) [Compound 75] | 5 (Level 5: the growth inhibition rate is greater than 85%) |

test system: Monocotyledonous and dicotyledonous weed seeds and main crop seeds; test: Post-emergence test experiment (Table 3, 1000 g a.i./ha); type: in vivo; conditions: Digitaria sanguinalis, 3 weeks in greenhouse, fresh weight inhibition
Protocol: as §1, §2

| Compound | Activity level (growth inhibition rate) Digitaria sanguinalis |
| --- | --- |
| CC(Oc1nc(F)c(Cl)c(N)c1Cl)C(=O)ON=C1CCCC1 (stereo not shown) [Compound 117] | 5 (Level 5: the growth inhibition rate is greater than 85%) |
| CCC(=NOC(=O)C(C)Oc1nc(F)c(Cl)c(N)c1Cl)C(=O)NCc1ccc(C)cc1 (stereo not shown) [Compound 100] | 5 (Level 5: the growth inhibition rate is greater than 85%) |
| CC(Oc1nc(F)c(Cl)c(N)c1Cl)C(=O)ON=C(c1ccc(N(C)C)cc1)[N+](=O)[O-] (stereo not shown) [Compound 90] | 5 (Level 5: the growth inhibition rate is greater than 85%) |
| CCCC(Cl)=NOC(=O)C(C)Oc1nc(F)c(Cl)c(N)c1Cl (stereo not shown) [Compound 75] | 5 (Level 5: the growth inhibition rate is greater than 85%) |

same assay, conditions: Echinochloa crusgalli, 3 weeks in greenhouse, fresh weight inhibition

| Compound | Activity level (growth inhibition rate) Echinochloa crusgalli |
| --- | --- |
| CC(Oc1nc(F)c(Cl)c(N)c1Cl)C(=O)ON=C1CCCC1 (stereo not shown) [Compound 117] | 5 (Level 5: the growth inhibition rate is greater than 85%) |
| CCC(=NOC(=O)C(C)Oc1nc(F)c(Cl)c(N)c1Cl)C(=O)NCc1ccc(C)cc1 (stereo not shown) [Compound 100] | 5 (Level 5: the growth inhibition rate is greater than 85%) |
| CC(Oc1nc(F)c(Cl)c(N)c1Cl)C(=O)ON=C(c1ccc(N(C)C)cc1)[N+](=O)[O-] (stereo not shown) [Compound 90] | 5 (Level 5: the growth inhibition rate is greater than 85%) |
| CCCC(Cl)=NOC(=O)C(C)Oc1nc(F)c(Cl)c(N)c1Cl (stereo not shown) [Compound 75] | 5 (Level 5: the growth inhibition rate is greater than 85%) |

same assay, conditions: Galium spurium, 3 weeks in greenhouse, fresh weight inhibition

| Compound | Activity level (growth inhibition rate) Galium spurium |
| --- | --- |
| CC(Oc1nc(F)c(Cl)c(N)c1Cl)C(=O)ON=C1CCCC1 (stereo not shown) [Compound 117] | 5 (Level 5: the growth inhibition rate is greater than 85%) |
| CCC(=NOC(=O)C(C)Oc1nc(F)c(Cl)c(N)c1Cl)C(=O)NCc1ccc(C)cc1 (stereo not shown) [Compound 100] | 5 (Level 5: the growth inhibition rate is greater than 85%) |
| CC(Oc1nc(F)c(Cl)c(N)c1Cl)C(=O)ON=C(c1ccc(N(C)C)cc1)[N+](=O)[O-] (stereo not shown) [Compound 90] | 5 (Level 5: the growth inhibition rate is greater than 85%) |
| CCCC(Cl)=NOC(=O)C(C)Oc1nc(F)c(Cl)c(N)c1Cl (stereo not shown) [Compound 75] | 5 (Level 5: the growth inhibition rate is greater than 85%) |

same assay, conditions: Leptochloa chinensis, 3 weeks in greenhouse, fresh weight inhibition

| Compound | Activity level (growth inhibition rate) Leptochloa chinensis |
| --- | --- |
| CC(Oc1nc(F)c(Cl)c(N)c1Cl)C(=O)ON=C1CCCC1 (stereo not shown) [Compound 117] | 5 (Level 5: the growth inhibition rate is greater than 85%) |
| CCC(=NOC(=O)C(C)Oc1nc(F)c(Cl)c(N)c1Cl)C(=O)NCc1ccc(C)cc1 (stereo not shown) [Compound 100] | 5 (Level 5: the growth inhibition rate is greater than 85%) |
| CC(Oc1nc(F)c(Cl)c(N)c1Cl)C(=O)ON=C(c1ccc(N(C)C)cc1)[N+](=O)[O-] (stereo not shown) [Compound 90] | 5 (Level 5: the growth inhibition rate is greater than 85%) |
| CCCC(Cl)=NOC(=O)C(C)Oc1nc(F)c(Cl)c(N)c1Cl (stereo not shown) [Compound 75] | 5 (Level 5: the growth inhibition rate is greater than 85%) |

same assay, conditions: Monochoria Vaginalis, 3 weeks in greenhouse, fresh weight inhibition

| Compound | Activity level (growth inhibition rate) Monochoria Vaginalis |
| --- | --- |
| CC(Oc1nc(F)c(Cl)c(N)c1Cl)C(=O)ON=C1CCCC1 (stereo not shown) [Compound 117] | 5 (Level 5: the growth inhibition rate is greater than 85%) |
| CCC(=NOC(=O)C(C)Oc1nc(F)c(Cl)c(N)c1Cl)C(=O)NCc1ccc(C)cc1 (stereo not shown) [Compound 100] | 5 (Level 5: the growth inhibition rate is greater than 85%) |
| CC(Oc1nc(F)c(Cl)c(N)c1Cl)C(=O)ON=C(c1ccc(N(C)C)cc1)[N+](=O)[O-] (stereo not shown) [Compound 90] | 5 (Level 5: the growth inhibition rate is greater than 85%) |
| CCCC(Cl)=NOC(=O)C(C)Oc1nc(F)c(Cl)c(N)c1Cl (stereo not shown) [Compound 75] | 5 (Level 5: the growth inhibition rate is greater than 85%) |

same assay, conditions: Murdannia triquetra, 3 weeks in greenhouse, fresh weight inhibition

| Compound | Activity level (growth inhibition rate) Murdannia triquetra |
| --- | --- |
| CC(Oc1nc(F)c(Cl)c(N)c1Cl)C(=O)ON=C1CCCC1 (stereo not shown) [Compound 117] | 5 (Level 5: the growth inhibition rate is greater than 85%) |
| CCC(=NOC(=O)C(C)Oc1nc(F)c(Cl)c(N)c1Cl)C(=O)NCc1ccc(C)cc1 (stereo not shown) [Compound 100] | 5 (Level 5: the growth inhibition rate is greater than 85%) |
| CC(Oc1nc(F)c(Cl)c(N)c1Cl)C(=O)ON=C(c1ccc(N(C)C)cc1)[N+](=O)[O-] (stereo not shown) [Compound 90] | 5 (Level 5: the growth inhibition rate is greater than 85%) |
| CCCC(Cl)=NOC(=O)C(C)Oc1nc(F)c(Cl)c(N)c1Cl (stereo not shown) [Compound 75] | 5 (Level 5: the growth inhibition rate is greater than 85%) |

same assay, conditions: Setaria viridis, 3 weeks in greenhouse, fresh weight inhibition

| Compound | Activity level (growth inhibition rate) Setaria viridis |
| --- | --- |
| CC(Oc1nc(F)c(Cl)c(N)c1Cl)C(=O)ON=C1CCCC1 (stereo not shown) [Compound 117] | 5 (Level 5: the growth inhibition rate is greater than 85%) |
| CCC(=NOC(=O)C(C)Oc1nc(F)c(Cl)c(N)c1Cl)C(=O)NCc1ccc(C)cc1 (stereo not shown) [Compound 100] | 5 (Level 5: the growth inhibition rate is greater than 85%) |
| CC(Oc1nc(F)c(Cl)c(N)c1Cl)C(=O)ON=C(c1ccc(N(C)C)cc1)[N+](=O)[O-] (stereo not shown) [Compound 90] | 5 (Level 5: the growth inhibition rate is greater than 85%) |
| CCCC(Cl)=NOC(=O)C(C)Oc1nc(F)c(Cl)c(N)c1Cl (stereo not shown) [Compound 75] | 5 (Level 5: the growth inhibition rate is greater than 85%) |
